{"source": "patent US8258099B2", "about": "“Pin1-modulating compounds and methods of use thereof” (Max-Planck-Gesellschaft zur Foerderung der Wissenschaften …, priority 2004, dated 2012)", "key": {"XlPin1": {"biological_target": "XlPin1", "assay": "Protease free PPIase assay, XlPin1", "format": "biochemical, X. laevis", "experimental": "Protein concentrations were determined using the extinction coefficient ε280=21030 M^−1 cm^−1 for hPin1, ε280=6979 M^−1 cm^−1 for the hPin1 PPIase domain, ε280=21030 M^−1 cm^−1 for XlPin1, ε280=8250 M^−1 cm^−1 for hPar14 and ε280=8250 M^−1 cm^−1 for hCyp18. Extinction coefficients were calculated using the program ProtParam Tool at ExPASy (SIB, Switzerland). All measurements were done at 10° C. in 35 mM Hepes buffer (pH 7.8).\nThe determination of the kinetic constants of the cis/trans isomerization within the protease-free system was performed using fluorescence based measurements (Garcia-Echeverria et al., 1993, Zhang et al., 2002) on a Hitachi F-3010 fluorescence spectrophotometer with H-Abz-Ala-Glu-Pro-Phe-NH-Np (SEQ ID NO: 2) as substrate. The substrate stock solution was 12 mM in anhydrous trifluoroethanol/0.55 M LiCl. […] The excitation wavelength was 320 nm (spectral bandwidth 3 nm) and emission was detected at 420 nm (spectral bandwidth 10 nm).\nData analysis was performed by single-exponential nonlinear regression using the SigmaPlot Scientific Graphing System Version 5.00 (Jandel Corp.). […] The rate constant k0 was determined in the absence of Pin1. The first order rate constants kenz was calculated from the equation kenz=kobs−k0. […]"}, "X. laevis embryos": {"system": "X. laevis embryos", "assay": "Microinjection in X. laevis embryos, cell division", "format": "in vivo", "details": "for number of vital embryos: 5 hours", "experimental": "FIG. 8 depicts the blocking of cell division by the injection of peptide 17 in X. laevis embryos. 50-300 pmol of peptide 17 or 300 pmol of its nonphosphorylated derivative (control) dissolved in 10 nl PBS buffer were microinjected in the animal half of X. laevis embryos at stage 2 of development. Embryos with large and/or apoptotic appearing cells surrounded by normally developing cells were counted after further 5 hours (stage 8-9) of development. […] Each value is the average of four independent experiments.\nFIGS. 9A-F depicts phenotypic analysis of X. laevis embryos after injection of peptide 17. 300 pmol of peptide 17 or its nonphosphorylated derivative dissolved in 10 nl PBS buffer were injected in the animal half of X. laevis embryos at stage 2 of development. 1.5 hour at stage 6 (A), 2.5 hours at stage 7 (B) and 4-5 hours at stage 8-9 (C, D) after injection enlarged cells became visible. Cells that are blocked in cell division are marked with a white arrow. Controls of uninjected embryos of stage 8-9 and embryos that were injected with 300 pmol of the nonphosphorylated derivative of peptide 17 are shown in panels E and F. The site where the nonphosphorylated derivative of peptide 17 was injected is marked with a white arrow (F).\nFIGS. 10A-D depict the rescue of peptide 17 caused cell division block in X. laevis embryos by hPin1 (A, B) and different hPin1 variants (C, D). FIG. 10A depicts the time course of V5-tagged hPin1 expression was analyzed by preparation of X. laevis embryo lysate 1, 2 and 4 hours after injection of 1, 2 or 3 ng of V5-tagged hPin1 mRNA. In every case, the injected volume was 10 nl. Lysates were prepared in lysis buffer containing phosphatase and protease inhibitors. Samples were separated by SDS PAGE followed by western blotting. Endogenous XlPin1 and V5-tagged hPin1 were detected using an anti hPin1 PPIase domain antiserum as primary antibody followed by incubation with a horseradish peroxidase-conjugated secondary antibody. Visualization was done using the SuperSignal® substrate. […] In every case, the whole volume of injection was 10 nl. The indicated amount of the mRNA was injected in the animal half of 30 embryos at stage 2 of development. Embryos with large and/or apoptotic appearing cells surrounded by normally developed cells were counted after additional 5 hours of development (stage 8-9). […] Each percentage of vital embryos shown in the figure is the average of four independent experiments. FIG. 10C indicates the expression of V5-tagged hPin1 variants was evaluated by preparation of embryo lysate after 4 hours of injection of the respective mRNA (2 ng) in X. laevis embryos. Lysates were prepared in lysis buffer containing phosphatase and protease inhibitors. Samples were separated using SDS PAGE followed by western blot analysis. Endogenous XlPin1 and injected V5-tagged hPin1 variants were detected using an anti hPin1 PPIase domain antiserum as primary antibody and a horseradish peroxidase-conjugated secondary antibody. Visualization was done by a chemiluminescent reaction using the SuperSignal® substrate (Pierce). FIG. 10D depicts 250 pmol of peptide 17 was coinjected with 2 ng mRNA of the indicated V5-tagged hPin1 variant (whole volume 10 nl) in the animal half of 30 X. laevis embryos at stage 2 of development. Results were analyzed as described for FIG. 10B. Each percentage of vital embryos shown in the figure is the average of four independent experiments.\nMicroinjection was done into the animal half of X. laevis embryos at stage 2 of development. In every case, the injection volume was 10 nl. Immunofluorescence studies of frozen X. laevis embryo sections were performed as previously described (Julius et al., 2000). Ten-micrometer cryosections of stage 8 embryos were labelled using a monoclonal anti hPin1 antibody (mouse) followed by incubation with Alexa Fluor 546™-conjugated anti mouse antibody of goat serum (Molecular Probes). […]"}}, "note": "Square brackets hold non-standard residues; d marks the D form. Peptide text beside a SMILES is read from it. d(pT) = C[C@H](OP(=O)(O)O)[C@@H](N)C(=O)O; 2Nal = N[C@@H](Cc1ccc2ccccc2c1)C(=O)O; Pip = O=C(O)[C@@H]1CCCCN1"}
{"smiles": "CC(=O)N[C@@H](Cc1ccccc1)C(=O)N[C@@H](C(=O)N1CCCC[C@H]1C(=O)N[C@@H](Cc1ccc2ccccc2c1)C(=O)N[C@@H](CCC(N)=O)C(N)=O)[C@H](C)OP(=O)(O)O", "note": "[Peptide 17, Ac-Phe-D-Thr(PO3H2)-Pip-Nal-Gln-NH2] (Ac-F[d(pT)][Pip][2Nal]Q-NH2)", "values": [{"measurement": "Ki", "setting": "XlPin1; footnote b) (text of footnote not given), probably XlPin1", "result": 34.4, "unit": "nM"}, {"measurement": "difference in affinity for recombinant Pin1 of both organisms", "setting": "XlPin1; hPin1 versus XlPin1", "result": "no marked difference"}, {"measurement": "number of vital embryos", "setting": "X. laevis embryos; 250 pmol peptide 17, coinjection of 2 ng of V5-tagged hPin1 mRNA", "result": "up to 73%"}, {"measurement": "number of vital embryos", "setting": "X. laevis embryos; 250 pmol peptide 17, without coinjection of mRNA", "result": 18, "unit": "%"}, {"measurement": "normal embryos after microinjection", "setting": "X. laevis embryos; 300 pmol, stage 2 embryos, examined 5 hours after injection", "result": "very low number of normal embryos"}, {"measurement": "effect on development of the embryos", "setting": "X. laevis embryos; microinjection at stage 2", "result": "cell cycle blockage and embryonic death"}]}
